Source: patent US20250136722A1, “CYTOTOXICITY TARGETING CHIMERAS” (GLAXOSMITHKLINE INTELLECTUAL PROPERTY DEVELOPMENT LIMITED, priority 2021, published 2025)
Counter-ions that a name gives are not always drawn.

What follows are compounds tested against T1, CHOK1 cells engineered to overexpress human CCR2 (Homo sapiens, UniProt P41597) (assay: Antibody dependent cellular cytotoxicity (ADCC) reporter assay (Example 199)). Conditions: with anti-cotinine antibody SEQ ID NO: 11/12; CHOK1-human CCR2 target cells, Jurkat FcγRIIIa NFAT-luciferase reporter cells; 12-18 hours; read-out: ADCC Reporter Assay pEC50 (converted).
T1 construct: expressed in transfected cells; host or cells: CHOK1 cells
Assay type: cell-based
Procedure: An antibody dependent cellular cytoxicity reporter assay was conducted using the following four assay components: (i) ARM compound of Formula (I) targeting CCR2 (concentrations ranging from 1 pM to 10 μM) (ii) anti-cotinine antibody having a heavy chain sequence of SEQ ID NO: 11 and a light chain sequence of SEQ ID NO: 12 (rabbit variable region with human IgG1 Fc domain containing a DE mutation (S239D/1332E)) (concentrations ranging from 0.01 μg/mL to 200 μg/mL); (iii) target cells: CHOK1 cells engineered to overexpress either human CCR2 (typically 1000-20,000 cells per well) and (iv) reporter cells: Jurkat cells engineered to express FcγRIIIa with the reporter gene luciferase under the control of the NFAT promoter (typically 3000-75,000 cells per well). Reagents were combined in a final volume of 20 μL in a 384-well tissue culture treated plate. All four assay components were incubated together for about 12-18 hours. Thereafter, BioGlo Detection reagent (Promega) was added to the wells to lyse the cells and provide a substrate for the luciferase reporter protein. Luminescence signal was measured on a microplate reader and signal:background was calculated by dividing the signal of a test well by the signal obtained when no heterobivalent compound of Formula (I) was added. EC50 calculations were done using Graphpad Prism Software, specifically a nonlinear regression curve fit (Y=Bottom+(Top−Bottom)/(1+10^((Log EC50−X)*HillSlope))).
ARMs compounds of Formula (I) of the invention were tested for ADCC activity in the above assay in or more experimental runs and the results are shown in Table 3 below. Potency of the compounds of Formula (I) of the invention is reported as a pEC50 value. The pEC50 value is the negative log of the EC50 value, wherein the EC50 value is the half maximal effective concentration measured in molar (M). For compounds tested in more than one experimental run, the pEC50 value is reported as an average.

Point of comparison: `CC(C)N(C)[C@@H]1CC[C@H](N2CC[C@H](Nc3ncnc4ccc(C(F)(F)F)cc34)C2=O)[C@H](NC(=O)C2CC=C(c3ccc(OCCCCCCNC(=O)[C@H]4CC(=O)N(C)[C@@H]4c4cccnc4)cc3)CC2)C1` (stereo partly drawn) [Example 158, (2S,3S)-N-(6-((4′-(((1R,2S,5R)-5-(Isopropyl(methyl)amino)-2-((S)-2-oxo-3-((6-(trifluoromethyl)quinazolin-4-yl)amino)pyrrolidin-1-yl)cyclohexyl)carbamoyl)-2′,3′,4′,5′-tetrahydro-[1,1′-biphenyl]-4-yl)oxy)hexyl)-1-methyl-5-oxo-2-(pyridin-3-yl)pyrrolidine-3-carboxamide], EC50 2.51 nM. Against it:
- CC(C)N(C)[C@@H]1CC[C@H](N2CC[C@H](Nc3ncnc4ccc(C(F)(F)F)cc34)C2=O)[C@H](NC(=O)[C@H]2CC[C@H](N3CCC(C(=O)NCCOCCOCCNC(=O)[C@H]4CC(=O)N(C)[C@@H]4c4cccnc4)CC3)CC2)C1 [Example 135] — the same, 2.51 nM
- CC(C)N(C)[C@@H]1CC[C@H](N2CC[C@H](Nc3ncnc4ccc(C(F)(F)F)cc34)C2=O)[C@H](NC(=O)CNC(=O)[C@H]2CC[C@@H](NC(=O)COCCOCCNC(=O)[C@H]3CC(=O)N(C)[C@@H]3c3cccnc3)CC2)C1 [Example 136, (2S,3S)-N-(2-(2-(2-(((1S,4R)-4-((2-(((1R,2S,5R)-5-(Isopropyl(methyl)amino)-2-((S)-2-oxo-3-((6-(trifluoromethyl)quinazolin-4-yl)amino)pyrrolidin-1-yl)cyclohexyl)amino)-2-oxoethyl)carbamoyl)cyclohexyl)amino)-2-oxoethoxy)ethoxy)ethyl)-1-methyl-5-oxo-2-(pyridin-3-yl)pyrrolidine-3-carboxamide] — 2-fold higher, 4.91 nM
- CC(C)N(C)[C@@H]1CC[C@H](N2CC[C@H](Nc3ncnc4ccc(C(F)(F)F)cc34)C2=O)[C@H](NC(=O)[C@H]2CC[C@H](c3ccc(C(=O)NCCOCCOCCNC(=O)[C@H]4CC(=O)N(C)[C@@H]4c4cccnc4)cn3)CC2)C1 [Example 139, 6-((1R,4r)-4-(((1R,2S,5R)-5-(Isopropyl(methyl)amino)-2-((S)-2-oxo-3-((6-(trifluoromethyl)quinazolin-4-yl)amino)pyrrolidin-1-yl)cyclohexyl)carbamoyl)cyclohexyl)-N-(2-(2-(2-((2S,3S)-1-methyl-5-oxo-2-(pyridin-3-yl)pyrrolidine-3-carboxamido)ethoxy)ethoxy)ethyl)nicotinamide] — 1.6-fold higher, 3.98 nM
- CC(C)N(C)[C@@H]1CC[C@H](N2CC[C@H](Nc3ncnc4ccc(C(F)(F)F)cc34)C2=O)[C@H](NC(=O)[C@H]2CC[C@H](c3ccc(C(=O)NCCOCCOCCNC(=O)[C@H]4CC(=O)N(C)[C@@H]4c4cccnc4)nc3)CC2)C1 [Example 141] — within 1.5-fold, 2 nM
- CC(C)N(C)[C@@H]1CC[C@H](N2CC[C@H](Nc3ncnc4ccc(C(F)(F)F)cc34)C2=O)[C@H](NC(=O)C2CCN(CCCCCCCCNC(=O)[C@H]3CC(=O)N(C)[C@@H]3c3cccnc3)CC2)C1 [Example 144, N-((1R,2S,5R)-5-(Isopropyl(methyl)amino)-2-((S)-2-oxo-3-((6-(trifluoromethyl)quinazolin-4-yl)amino)pyrrolidin-1-yl)cyclohexyl)-1-(8-((2S,3S)-1-methyl-5-oxo-2-(pyridin-3-yl)pyrrolidine-3-carboxamido)octyl)piperidine-4-carboxamide, 3Formic acid salt] — within 1.5-fold, 3.16 nM
- CC(C)N(C)[C@@H]1CC[C@H](N2CC[C@H](Nc3ncnc4ccc(C(F)(F)F)cc34)C2=O)[C@H](NC(=O)[C@H]2CC[C@@H](N3CCN(CCCCCCCCNC(=O)[C@H]4CC(=O)N(C)[C@@H]4c4cccnc4)CC3)CC2)C1 [Example 145] — 1.6-fold lower, 1.58 nM
- CC(C)N(C)[C@@H]1CC[C@H](N2CC[C@H](Nc3ncnc4ccc(C(F)(F)F)cc34)C2=O)[C@H](NC(=O)[C@H]2CC[C@H](N3CCN(CCCCCCCCNC(=O)[C@H]4CC(=O)N(C)[C@@H]4c4cccnc4)CC3)CC2)C1 [Example 146] — 10-fold lower, 0.251 nM
- CC(C)N(C)[C@@H]1CC[C@H](N2CC[C@H](Nc3ncnc4ccc(C(F)(F)F)cc34)C2=O)[C@H](NC(=O)C2CCN(CCOCCOCCOCCOCCNC(=O)[C@H]3CC(=O)N(C)[C@@H]3c3cccnc3)CC2)C1 [Example 147] — 2-fold lower, 1.26 nM
- CC(C)N(C)[C@@H]1CC[C@H](N2CC[C@H](Nc3ncnc4ccc(C(F)(F)F)cc34)C2=O)[C@H](NC(=O)[C@H]2CC[C@@H](C(=O)NCCCN3CCN(CCCNC(=O)[C@H]4CC(=O)N(C)[C@@H]4c4cccnc4)CC3)CC2)C1 [Example 150, (1 s,4S)-N^1-((1R,2S,5R)-5-(Isopropyl(methyl)amino)-2-((S)-2-oxo-3-((6-(trifluoromethyl)quinazolin-4-yl)amino)pyrrolidin-1-yl)cyclohexyl)-N^4-(3-(4-(3-((2S,3S)-1-methyl-5-oxo-2-(pyridin-3-yl)pyrrolidine-3-carboxamido)propyl)piperazin-1-yl)propyl)cyclohexane-1,4-dicarboxamide] — within 1.5-fold, 3.16 nM
- CC(C)N(C)[C@@H]1CC[C@H](N2CC[C@H](Nc3ncnc4ccc(C(F)(F)F)cc34)C2=O)[C@H](NC(=O)COCCCCCCCCCOCCCCCCCNC(=O)[C@H]2CC(=O)N(C)[C@@H]2c2cccnc2)C1 [Example 153, (2S,3S)-N-(7-((9-(2-(((1R,2S,5R)-5-(Isopropyl(methyl)amino)-2-((S)-2-oxo-3-((6-(trifluoromethyl)quinazolin-4-yl)amino)pyrrolidin-1-yl)cyclohexyl)amino)-2-oxoethoxy)nonyl)oxy)heptyl)-1-methyl-5-oxo-2-(pyridin-3-yl)pyrrolidine-3-carboxamide] — the same, 2.51 nM
- CC(C)N(C)[C@@H]1CC[C@H](N2CC[C@H](Nc3ncnc4ccc(C(F)(F)F)cc34)C2=O)[C@H](NC(=O)[C@H]2CC[C@H](N3CCN(C(=O)CCCCCCCCNC(=O)[C@H]4CC(=O)N(C)[C@@H]4c4cccnc4)CC3)CC2)C1 [Example 155] — 1.6-fold lower, 1.58 nM
- CC(C)N(C)[C@@H]1CC[C@H](N2CC[C@H](Nc3ncnc4ccc(C(F)(F)F)cc34)C2=O)[C@H](NC(=O)c2cnn(C3CCN(C(=O)CCCCCCCCCCNC(=O)[C@H]4CC(=O)N(C)[C@@H]4c4cccnc4)CC3)c2)C1 [Example 156] — 3.2-fold lower, 0.794 nM
- CC(C)N(C)[C@@H]1CC[C@H](N2CC[C@H](Nc3ncnc4ccc(C(F)(F)F)cc34)C2=O)[C@H](NC(=O)CCCCCCCCC(=O)NCCOCCOCCNC(=O)[C@H]2CC(=O)N(C)[C@@H]2c2cccnc2)C1 [Example 159, N^1-((1R,2S,5R)-5-(isopropyl(methyl)amino)-2-((S)-2-oxo-3-((6-(trifluoromethyl)quinazolin-4-yl)amino)pyrrolidin-1-yl)cyclohexyl)-N^10-(2-(2-(2-((2S,3S)-1-methyl-5-oxo-2-(pyridin-3-yl)pyrrolidine-3-carboxamido)ethoxy)ethoxy)ethyl)decanediamide] — within 1.5-fold, 2 nM
- CC(C)N(C)[C@@H]1CC[C@H](N2CC[C@H](Nc3ncnc4ccc(C(F)(F)F)cc34)C2=O)[C@H](NC(=O)c2ccnc(CCCOCCOCCOCCOCCNC(=O)[C@H]3CC(=O)N(C)[C@@H]3c3cccnc3)c2)C1 [Example 160, N-((1R,2S,5R)-5-(Isopropyl(methyl)amino)-2-((S)-2-oxo-3-((6-(trifluoromethyl)quinazolin-4-yl)amino)pyrrolidin-1-yl)cyclohexyl)-2-(1-((2S,3S)-1-methyl-5-oxo-2-(pyridin-3-yl)pyrrolidin-3-yl)-1-oxo-5,8,11,14-tetraoxa-2-azaheptadecan-17-yl)isonicotinamide, 3Formic acid salt] — within 1.5-fold, 2 nM
- CC(C)N(C)[C@@H]1CC[C@H](N2CC[C@H](Nc3ncnc4ccc(C(F)(F)F)cc34)C2=O)[C@H](NC(=O)CCCCOCCCCCCCCOCCCCNC(=O)[C@H]2CC(=O)N(C)[C@@H]2c2cccnc2)C1 [Example 161, (2S,3S)-N-(4-((8-((5-(((1R,2S,5R)-5-(Isopropyl(methyl)amino)-2-((S)-2-oxo-3-((6-(trifluoromethyl)quinazolin-4-yl)amino)pyrrolidin-1-yl)cyclohexyl)amino)-5-oxopentyl)oxy)octyl)oxy)butyl)-1-methyl-5-oxo-2-(pyridin-3-yl)pyrrolidine-3-carboxamide] — 1.6-fold lower, 1.58 nM
- CC(C)N(C)[C@@H]1CC[C@H](N2CC[C@H](Nc3ncnc4ccc(C(F)(F)F)cc34)C2=O)[C@H](NC(=O)C2CCN(c3cnc(NCCOCCOCCNC(=O)[C@H]4CC(=O)N(C)[C@@H]4c4cccnc4)cn3)CC2)C1 [Example 162, N-((1R,2S,5R)-5-(Isopropyl(methyl)amino)-2-((S)-2-oxo-3-((6-(trifluoromethyl)quinazolin-4-yl)amino)pyrrolidin-1-yl)cyclohexyl)-1-(5-((2-(2-(2-((2S,3S)-1-methyl-5-oxo-2-(pyridin-3-yl)pyrrolidine-3-carboxamido)ethoxy)ethoxy)ethyl)amino)pyrazin-2-yl)piperidine-4-carboxamide] — 1.6-fold lower, 1.58 nM
